According to the supplement of paper PMC10307832:

Assays:
Test in all cases: relative viability (nuclei count vs DMSO), 5 days (fraction); higher = more cells survive
FG-4592 + Foretinib = compound: Cc1nc(C(=O)NCC(=O)O)c(O)c2ccc(Oc3ccccc3)cc12 [FG-4592] + COc1cc2c(Oc3ccc(NC(=O)C4(C(=O)Nc5ccc(F)cc5)CC4)cc3F)ccnc2cc1OCCCN1CCOCC1 [Foretinib] (partner 0.25 µM)
How it was run: (§1)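 Relative viability divides the nuclei count in treated wells by that in vehicle wells. Lung cancer cell lines were seeded in 1536-well plates, dosed by pin tool the next day, and fixed and stained after 5 days in one step with final 0.05% Triton X-100, 1% formaldehyde and 1 ug/ml Hoechst. Dosing was a single drug or a fixed anchor-drug dose plus five library-drug doses (not always all listed) in √10 steps, and values are medians of duplicate plates imaged at 4×.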

FG-4592 + OSI-027 = compound: Cc1nc(C(=O)NCC(=O)O)c(O)c2ccc(Oc3ccccc3)cc12 [FG-4592] + COc1cccc2cc(-c3nc([C@H]4CC[C@H](C(=O)O)CC4)n4ncnc(N)c34)[nH]c12 [OSI-027] (partner 0.5 µM)
How it was run: as §1

FG-4592 + Bortezomib = compound: Cc1nc(C(=O)NCC(=O)O)c(O)c2ccc(Oc3ccccc3)cc12 [FG-4592] + CC(C)C[C@H](NC(=O)[C@H](Cc1ccccc1)NC(=O)c1cnccn1)B(O)O [Bortezomib] (partner 0.002 µM)
How it was run: as §1

IU1-47 + Linsitinib = compound: CC1=CC(=C(N1C2=CC=C(C=C2)Cl)C)C(=O)CN3CCCCC3 [IU1-47] + C[C@]1(O)C[C@@H](c2nc(-c3ccc4ccc(-c5ccccc5)nc4c3)c3c(N)nccn32)C1 [Linsitinib] (partner 1 µM)
How it was run: as §1

UMC-11
relative viability (FG-4592 + Foretinib; first compound 0.08 µM): 1.06 | relative viability (FG-4592 + Foretinib; first compound 0.253 µM): 1.03 | relative viability (FG-4592 + Foretinib; first compound 0.8 µM): 0.918 | relative viability (FG-4592 + Foretinib; first compound 2.53 µM): 1.03 | relative viability (FG-4592 + Foretinib; first compound 8 µM): 0.671 | relative viability (FG-4592 + OSI-027; first compound 0.08 µM): 0.466 | relative viability (FG-4592 + OSI-027; first compound 0.253 µM): 0.529 | relative viability (FG-4592 + OSI-027; first compound 0.8 µM): 0.498 | relative viability (FG-4592 + OSI-027; first compound 2.53 µM): 0.461 | relative viability (FG-4592 + OSI-027; first compound 8 µM): 0.441 | relative viability (FG-4592 + Bortezomib; first compound 0.08 µM): 0.752 | relative viability (FG-4592 + Bortezomib; first compound 0.253 µM): 0.771 | relative viability (FG-4592 + Bortezomib; first compound 0.8 µM): 0.633 | relative viability (FG-4592 + Bortezomib; first compound 2.53 µM): 0.75 | relative viability (FG-4592 + Bortezomib; first compound 8 µM): 0.692 | relative viability (IU1-47 + Linsitinib; first compound 0.08 µM): 0.996 | relative viability (IU1-47 + Linsitinib; first compound 0.253 µM): 0.978 | relative viability (IU1-47 + Linsitinib; first compound 0.8 µM): 1.12 | relative viability (IU1-47 + Linsitinib; first compound 2.53 µM): 1.07 | relative viability (IU1-47 + Linsitinib; first compound 8 µM): 0.952
